Source: US9745360B2 (Sanofi, priority 2012, dated 2017)
*1 amine or outer side, *2 acyl side, *3 side chain or, on linkers, in order; H or OH if unused. Where a SMILES comes first, the peptide text is derived from it. Side-chain parts run from the residue outwards. [ ]: non-standard residue; d: D form. The star is where a group is joined. γGlu = O=C(O)[C@H](CCC(=O)[*:2])N[*:1]; Palmitoyl = CCCCCCCCCCCCCCCC(=O)*; αMeK = C[C@](N)(CCCCN)C(=O)O; Aib = CC(C)(N)C(=O)O

Key:
[1] = tested on: non-fasted female diabetic dbdb-mice; experiment: Glucose lowering in non-fasted female diabetic dbdb-mice; format: in vivo; settings: 3 μg/kg s.c., at 240 min, kept to 480 min, baseline 20-22 mmol/l
Excerpt: Female diabetic dbdb-mice of mean non-fasted glucose value of 20-22 mmol/l and a body weight of 42 g+/−0.6 g (SEM) were used. Mice were individually marked and were adapted to housing conditions for at least one week.
3-5 days prior to study start mice were assigned to groups and cages (4 mice per cage, 8 per group, control group 16) according to their non-fasted glucose values to ensure even distribution of lower and higher values between groups (stratification). On the study day, mice were weighed and dosed (t=0). Immediately prior to compound administration feed was removed while water remained available, and a first blood sample at a tail incision was drawn (baseline). Further blood samples were drawn at the tail incision at 30, 60, 90, 120, 240, 360, and 480 min.
Statistical analyses are performed with Everstat Version 6.0 based on SAS by 2-way-ANOVA on repeated measures, followed by Dunnett's post-hoc test against vehicle-control. Differences are considered statistically significant at the p<0.05 level.

[2] = tested on: female diabetic dbdb-mice; experiment: 4 weeks of treatment: glucose, HbA1c and oral glucose tolerance in female diabetic dbdb-mice (method 4); format: in vivo; settings: 3 and 10 μg/kg s.c. once daily
Protocol: 8 week old, female diabetic dbdb-mice of mean non-fasted glucose value of 14.5 mmol/l and a body weight of 37-40 g were used. Mice were individually marked and were adapted to housing conditions for at least one week. 7 days prior to study start, baseline values for non-fasted glucose and HbA1c were determined, 5 days prior to study start, mice were assigned to groups and cages (5 mice per cage, 10 per group) according to their HbA1c values to ensure even distribution of lower and higher values between groups (stratification).
Mice were treated for 4 weeks, by once daily subcutaneous administration 3 hours prior to the dark phase (6 pm to 6 am). Blood samples from a tail tip incision were obtained for HbA1c on study day 21 and oral glucose tolerance was assessed in the 4th week. Oral glucose tolerance test was done in the morning without prior extra compound administration to majorly assess the effect of chronic treatment and less of acute compound administration. Mice were fasted for 4 hours prior to oral glucose administration (2 g/kg, t=0 min). Blood samples were drawn prior to glucose administration and at 15, 30, 60, 90, 120, and 180 min thereafter. Feed was returned after the last blood sampling. Results are represented as change from baseline, glucose in mmol/l and HbA1c in %.
Statistical analyses are performed with Everstat Version 6.0 based on SAS by 1-way-ANOVA, followed by Dunnett's post-hoc test against vehicle-control. Differences are considered statistically significant at the p<0.05 level.
Female dbdb-mice, received 3 and 10 μg/kg of SEQ ID NO: 11 or phosphate buffered saline (vehicle control) once daily, subcutaneously over four weeks. […] (FIG. 3).

## CCCCCCCCCCCCCCCC(=O)N[C@@H](CCC(=O)NCCCC[C@H](NC(=O)[C@H](CCC(N)=O)NC(=O)[C@@H](NC(=O)[C@H](CO)NC(=O)[C@H](CC(C)C)NC(=O)[C@H](CC(=O)O)NC(=O)[C@H](CO)NC(=O)[C@@H](NC(=O)[C@H](Cc1ccccc1)NC(=O)[C@@H](NC(=O)CNC(=O)[C@H](CCC(=O)O)NC(=O)C(C)(C)NC(=O)[C@@H](N)Cc1ccc(O)cc1)[C@@H](C)O)[C@@H](C)O)[C@@H](C)CC)C(=O)N[C@@H](CCC(=O)O)C(=O)N[C@@H](CCC(=O)O)C(=O)N[C@@H](CCCNC(=N)N)C(=O)N[C@@H](C)C(=O)N[C@@H](C)C(=O)N[C@@](C)(CCCCN)C(=O)N[C@@H](CCC(=O)O)C(=O)N[C@@H](Cc1ccccc1)C(=O)N[C@H](C(=O)N[C@@H](CCC(=O)O)C(=O)N[C@@H](Cc1c[nH]c2ccccc12)C(=O)N[C@@H](CC(C)C)C(=O)N[C@@H](CCCCN)C(=O)N[C@@H](CC(N)=O)C(=O)N[C@H](C(=O)NCC(=O)N1CCC[C@H]1C(=O)N[C@@H](CO)C(=O)N[C@@H](CO)C(=O)NCC(=O)N[C@@H](C)C(=O)N1CCC[C@H]1C(=O)N1CCC[C@H]1C(=O)N1CCC[C@H]1C(=O)N[C@@H](CO)C(N)=O)[C@@H](C)O)[C@@H](C)CC)C(=O)O [SEQ ID NO: 11, Y-Aib-E-G-T-F-T-S-D-L-S-I-Q-K(γE-x53)-E-E-R-A-A-(S)MeLys-E-F-I-E-W-L-K-N-T-G-P-S-S-G-A-P-P-P-S-NH2] (H-Y[Aib]EGTFTSDLSIQK([γGlu-Palmitoyl])EERAA[αMeK]EFIEWLKNTGPSSGAPPPS-NH2)
[1]
  maximal effect, glucose reduction: ~11 mmol/L
[2]; 4th week, 2 g/kg oral glucose
  oral glucose tolerance: improved oral glucose tolerance
[2]; four weeks
  non-fasted glucose compared to vehicle control: reduced statistically significant
[2]; four weeks, p<0.05
  HbA1c compared to vehicle control: prevented an increase of HbA1c in a statistical significant manner
[2]; oral glucose tolerance test, p<0.05
  reduction of AUC under the glucose curve compared to vehicle control: reached statistical significance
